Patent publication US20090054392A1, “NAPHTHYLPYRIMIDINE, NAPHTHYLPYRAZINE AND NAPHTHYLPYRIDAZINE ANALOGS AND THEIR USE AS AGONISTS OF THE WNT-BETA-CATENIN CELLULAR MESSAGING SYSTEM” (Wyeth, priority 2007, published 2009)
Where two headings read alike, the source gives them in different places.

Test system: Dkk1-LRP5-TCF-Luciferase
Test: Functional Dkk1-LRP5-TCF-Luciferase Assay in U2OS Cells
Conditions: for A = MAX FOLD Induction/DMSO CONTROL: maximum fold induction over DMSO control
[1] = Homo sapiens, U2OS, read-out: B = TCF ACTIVITY/DMSO CONTROL Fold induction @ 2.0 uM, 2.0 uM compound
[2] = Homo sapiens, U2OS, read-out: C = TCF ACTIVITY/DMSO CONTROL Fold induction @ 20.0 uM, 20.0 uM compound

Structure (SMILES) | fold induction at 2 µM [1] | fold induction at 20 µM [2] | A = MAX FOLD Induction/DMSO CONTROL [fold] | other results
CCNC(=O)NC1CCCN(c2nccc(-c3ccc4ccccc4c3)n2)CC1 (stereo not drawn) [N-ethyl-N′-{1-[4-(2-naphthyl)pyrimidin-2-yl]azepan-4-yl}urea] | 2.33 | 2.56 | 1.320 | –
CCOC(=O)C1CCN(c2nccc(-c3ccc4ccccc4c3)n2)CC1 [ethyl 1-[4-(2-naphthyl)pyrimidin-2-yl]piperidine-4-carboxylate] | 1.64 | 1.91 | 1.950 | –
NC(=O)C1CCN(c2nccc(-c3ccc4ccccc4c3)n2)CC1 [1-[4-(2-naphthyl)pyrimidin-2-yl]piperidine-4-carboxamide] | 1.62 | 1.15 | 1.660 | –
CN(C)CCN(C)[C@@H]1CCN(c2nccc(-c3ccc4ccccc4c3)n2)C1 [N,N,N′-trimethyl-N′-{(3R)-1-[4-(2-naphthyl)pyrimidin-2-yl]pyrrolidin-3-yl}ethane-1,2-diamine] | 2.4 | – | – | –
CC(C)NC(=O)NCCN1CCN(c2nccc(-c3ccc4ccccc4c3)n2)CC1 [N-isopropyl-N′-(2-{4-[4-(2-naphthyl)pyrimidin-2-yl]piperazin-1-yl}ethyl)urea] | 1.06 | 0.1 | – | –
CCCN(C)CCN(C)[C@@H]1CCN(c2nccc(-c3ccc4ccccc4c3)n2)C1 [N,N′-dimethyl-N-{(3R)-1-[4-(2-naphthyl)pyrimidin-2-yl]pyrrolidin-3-yl}-N′-propylethane-1,2-diamine] | 3.4 | – | – | –
N[C@@H]1[C@H]2CN(c3nccc(-c4ccc5ccccc5c4)n3)C[C@@H]12 | – | – | 5.480 | EC50: 4 µM; B = TCF ACTIVITY/DMSO CONTROL Fold induction @ 2.0 uM (2.0 uM compound): 1.920 fold
CN(C[C@@H]1CCN(c2nccc(-c3ccc4ccccc4c3)n2)C1)C1CCCCC1 [N-methyl-N-({(3S)-1-[4-(2-naphthyl)pyrimidin-2-yl]pyrrolidin-3-yl}methyl)cyclohexanamine] | 1.37 | 2.27 | 3.720 | –
CC(=O)N(C)[C@H]1CCN(c2nccc(-c3ccc4ccccc4c3)n2)C1 [N-methyl-N-{(3S)-1-[4-(2-naphthyl)pyrimidin-2-yl]pyrrolidin-3-yl}acetamide] | 2.38 | 2.89 | 2.533 | EC50 (Homo sapiens, U2OS): 2.15 µM
CCN(CC)C(=O)N1CCC(N(C)c2nccc(-c3ccc4ccccc4c3)n2)CC1 [N,N-diethyl-4-{methyl[4-(2-naphthyl)pyrimidin-2-yl]amino}piperidine-1-carboxamide] | 0.86 | 1.32 | – | –
c1ccc2cc(-c3ccnc(N4CCC(CN5CCNCC5)CC4)n3)ccc2c1 [4-(2-naphthyl)-2-[4-(piperazin-1-ylmethyl)piperidin-1-yl]pyrimidine] | 5.17 | 0.01 | 2.510 | –
O=C1CN(CC2CCN(c3nccc(-c4ccc5ccccc5c4)n3)CC2)CCN1 [4-({1-[4-(2-naphthyl)pyrimidin-2-yl]piperidin-4-yl}methyl)piperazin-2-one] | 1.16 | 1.49 | – | –
N=C(N)NCC1CCN(c2nccc(-c3ccc4ccccc4c3)n2)CC1 [N-({1-[4-(2-naphthyl)pyrimidin-2-yl]piperidin-4-yl}methyl)guanidine] | 1.27 | 0.02 | – | –
NCC1CCN(c2nccc(-c3ccc4cc(CN5CCOCC5)ccc4c3)n2)CC1 [1-(1-{4-[6-(morpholin-4-ylmethyl)-2-naphthyl]pyrimidin-2-yl}piperidin-4-yl)methanamine] | 1.1 | – | – | –
CCNC(=O)NCCC1CCN(c2nccc(-c3ccc4ccccc4c3)n2)CC1 [N-ethyl-N′-(2-{1-[4-(2-naphthyl)pyrimidin-2-yl]piperidin-4-yl}ethyl)urea] | 1.78 | 1.87 | – | –
O=C(Cc1ccccc1)N1CCC(CNc2nccc(-c3ccc4ccccc4c3)n2)CC1 [4-(2-naphthyl)-N-{[1-(phenylacetyl)piperidin-4-yl]methyl}pyrimidin-2-amine] | 1.03 | 1.87 | – | –
CCN(CC)CC1CCN(c2nccc(-c3ccc4ccccc4c3)n2)CC1 [N-ethyl-N-({1-[4-(2-naphthyl)pyrimidin-2-yl]piperidin-4-yl}methyl)ethanamine] | 1.14 | 0.02 | – | –
CN1CCN(CC2CCN(c3nccc(-c4ccc5ccccc5c4)n3)CC2)CC1 [2-{4-[(4-methylpiperazin-1-yl)methyl]piperidin-1-yl}-4-(2-naphthyl)pyrimidine] | 5.46 | – | 5.430 | EC50 (Homo sapiens, U2OS): 1.19 µM

Structure (SMILES) | fold induction at 2 µM [1] | fold induction at 20 µM [2] | A = MAX FOLD Induction/DMSO CONTROL [fold] | other results
O=C1CN(CC2CCN(c3nccc(-c4ccc5ccccc5c4)n3)C2)CCN1 (stereo not drawn) [4-({1-[4-(2-naphthyl)pyrimidin-2-yl]pyrrolidin-3-yl}methyl)piperazin-2-one] | 1.23 | 0.46 | – | –
CN(C)[C@H]1CCN(c2nccc(-c3ccc4ccccc4c3)n2)C1 [(3S)—N,N-dimethyl-1-[4-(2-naphthyl)pyrimidin-2-yl]pyrrolidin-3-amine] | – | 0.08 | 3.390 | EC50 (Homo sapiens, U2OS): 3 µM
CN1CCN(C(=O)[C@@H]2CCCN2c2nccc(-c3ccc4ccccc4c3)n2)CC1 [2-{(2S)-2-[(4-methylpiperazin-1-yl)carbonyl]pyrrolidin-1-yl}-4-(2-naphthyl)pyrimidine] | 0.9 | 1.6 | – | –
CC(=O)N(C)CCN(C)[C@@H]1CCN(c2nccc(-c3ccc4ccccc4c3)n2)C1 [N-methyl-N-[2-(methyl{(3R)-1-[4-(2-naphthyl)pyrimidin-2-yl]pyrrolidin-3-yl}amino)ethyl]acetamide] | – | 4.4 | – | –
CCOC(=O)N[C@@H]1CCN(c2nccc(-c3ccc4ccccc4c3)n2)C1 [ethyl {(3R)-1-[4-(2-naphthyl)pyrimidin-2-yl]pyrrolidin-3-yl}carbamate] | 1.21 | 0.69 | – | –
NC(=O)N1CCC(CNc2nccc(-c3ccc4ccccc4c3)n2)CC1 [4-({[4-(2-naphthyl)pyrimidin-2-yl]amino}methyl)piperidine-1-carboxamide] | 0.88 | 1.58 | – | –
CN1CCN(C(=O)[C@H]2CCCN2c2nccc(-c3ccc4ccccc4c3)n2)CC1 [2-{(2R)-2-[(4-methylpiperazin-1-yl)carbonyl]pyrrolidin-1-yl}-4-(2-naphthyl)pyrimidine] | 1.01 | 2.09 | 1.600 | –
C[C@H](N)C1CCN(c2nccc(-c3ccc4ccccc4c3)n2)CC1 [(1S)-1-{1-[4-(2-naphthyl)pyrimidin-2-yl]piperidin-4-yl}ethanamine] | – | – | 1.940 | EC50 (Homo sapiens, U2OS): 0.865 µM
c1ccc2cc(-c3ccnc(N4CC[C@H](CN5CCCC5)C4)n3)ccc2c1 [4-(2-naphthyl)-2-[(3R)-3-(pyrrolidin-1-ylmethyl)pyrrolidin-1-yl]pyrimidine] | 1.5 | 6.07 | 6.053 | EC50 (Homo sapiens, U2OS): 7.67 µM
CCN1CCC(CNc2nccc(-c3ccc4ccccc4c3)n2)CC1 [N-[(1-ethylpiperidin-4-yl)methyl]-4-(2-naphthyl)pyrimidin-2-amine] | 1.5 | 0.908 | 3.450 | EC50 (Homo sapiens, U2OS): 3.94 µM
CN(C)[C@@H]1CCN(C(=O)[C@H]2CCCN2c2nccc(-c3ccc4ccccc4c3)n2)C1 [(3R)—N,N-dimethyl-1-{1-[4-(2-naphthyl)pyrimidin-2-yl]-D-prolyl}pyrrolidin-3-amine] | 0.93 | 1.85 | 1.630 | –
NCC1CCCN(c2nccc(-c3ccc4ccccc4c3)n2)C1 (stereo not drawn) [({1-[4-(2-naphthyl)pyrimidin-2-yl]piperidin-3-yl}methyl)amine] | 2.9 | 0.005 | 5.433 | EC50 (Homo sapiens, U2OS): 2.68 µM
CC(C)(C)OC(=O)NCC1CN(c2nccc(-c3ccc4ccccc4c3)n2)C1 [tert-butyl ({1-[4-(2-naphthyl)pyrimidin-2-yl]azetidin-3-yl}methyl)carbamate] | 1.41 | 0.46 | – | –
CC(=O)N1CC[C@@H](Nc2nccc(-c3ccc4ccccc4c3)n2)C1 [N-[(3R)-1-acetylpyrrolidin-3-yl]-4-(2-naphthyl)pyrimidin-2-amine] | 1.21 | 2.06 | 2.980 | EC50 (Homo sapiens, U2OS): 14.2 µM
NC(=O)N1CC(CNc2nccc(-c3ccc4ccccc4c3)n2)C1 [3-({[4-(2-naphthyl)pyrimidin-2-yl]amino}methyl)azetidine-1-carboxamide] | 1.09 | 1.58 | – | –
CN(C)C(=O)NCC1CCN(c2nccc(-c3ccc4ccccc4c3)n2)C1 (stereo not drawn) [N,N-dimethyl-N′-({1-[4-(2-naphthyl)pyrimidin-2-yl]pyrrolidin-3-yl}methyl)urea] | 0.84 | 1.15 | – | –
c1ccc2cc(-c3ccnc(N4CC[C@H](N5CC6CCNC6C5)C4)n3)ccc2c1 (stereo partly drawn) [5-{(3S)-1-[4-(2-naphthyl)pyrimidin-2-yl]pyrrolidin-3-yl}octahydropyrrolo[3,4-b]pyrrole] | 2.2 | – | – | –
NCCN1CCN(c2nccc(-c3ccc4ccccc4c3)n2)CC1 [(2-{4-[4-(2-naphthyl)pyrimidin-2-yl]piperazin-1-yl}ethyl)amine] | – | – | – | fold induction at 2 µM (Homo sapiens, U2OS, read-out: B = TCF ACTIVITY/DMSO CONTROL Fold induction @ 2.0 uM): 1; fold induction at 20 µM (Homo sapiens, U2OS, read-out: C = TCF ACTIVITY/DMSO CONTROL Fold induction @ 20.0 uM): 1.79
